Laboratory results reported in publication PMC9611758, “Bioactive Platinum(IV) Complexes Incorporating Halogenated Phenylacetates” (Molecules, 2022).
“Also recorded” adds a separate entry of the source.

What was measured:
HT29 colon = test: MTT growth inhibition assay, HT29; assay type: cell-based, human; details: MTT assay, 72 h
[1] = test system: non-tumour derived MCF10A breast line; test: MTT growth inhibition assay, MCF10A; assay type: cell-based, human; details: 72 h
U87 glioblastoma = test: MTT growth inhibition assay, U87; assay type: cell-based, human; details: 72 h
panel of cell lines = test: MTT growth inhibition assay, whole panel of cell lines; assay type: cell-based, human; details: average over the cell lines tested, MTT assay, 72 h
BE2-C neuroblastoma = test: MTT growth inhibition assay, BE2-C; assay type: cell-based, human; details: 72 h
[2] = Lipophilicity by HPLC (log kw); assay type: physicochemical; details: for log kw: chromatographic lipophilicity index, extrapolated to 100% d.i.H2O; for log kw (y-intercept of log k versus [CH3CN] % plot, Figure S80): linear fit
Excerpt: For lipophilicity measurements, HPLC was utilised instead of the traditional shake-flask method, as described previously. Recent studies have also reported the efficiency of HPLC in measuring the lipophilicity of compounds [79, 80]. Each complex was eluted under several isocratic ratios. A standard curve was generated to calculate the log value of the capacity factor (log k) according to Equation (1). Following Equation (2), the percentage of organic solvent (CH3CN) in the mobile phase from each isocratic run was plotted against log kw (Figure S80). Log kw is the chromatographic lipophilicity index or measure of lipophilicity of the complex, so a higher value corresponds to greater lipophilicity. Because the selected axial ligands in this study contain F, Cl, Br, and I, it was only appropriate to determine the influence of the halogens on the overall lipophilicity of the platinum(IV) complexes. […] Conversely, the least lipophilic complex was the phen derivative containing 4-FPA, 3, with a log kw of 0.25. Furthermore, for the phen derivatives, the order of increasing lipophilicity was 3 > 1 > 5 > 7, which corresponds to the order of increasing size of the halogens, F > Cl > Br > I. This pattern was also observed with the 5,6-Me2phen derivatives (4 > 2 > 6 > 8), thereby confirming that the halogens increased the order of lipophilicity accordingly based on their size.
For lipophilicity measurements, analytical HPLC was utilised. Elution profiles were acquired on an Agilent (Melbourne, VIC, Australia) Technologies 1260 Infinity instrument equipped with a Phenomenex Onyx^TM Monolithic C18-reverse phase column (100 × 4.6 mm, 5 µm pore size) (Sydney, NSW, Australia). The mobile phase consisted of solvents, A (0.06% TFA in d.i.H2O) and B (0.06% TFA in CH3CN/d.i.H2O (90:10)). Potassium iodide was used as an external dead volume marker to determine the dead time of the column. Retention times (TR) were measured at varying isocratic ratios ranging from 30 to 36% of solvent B at 1 mL·min^−1 mL. An injection volume of 10 µL was utilised. Capacity factors were determined according to Equation (1):(1) k=(TR−T0)/T0 where k is the capacity factor, TR is the retention time of the analyte, and T0 represents the dead time. A minimum of four different mobile compositions were used for each complex to calculate k. A linear plot was generated of log k against the concentration of CH3CN in the mobile phase to determine the value of log kw expressed by Equation (2):(2) logk=Sφ+logkw where S is the slope, φ is the concentration of the CH3CN in the mobile phase, and log kw represents the capacity factor of the complex in 100% d.i.H2O. Extrapolation of this linear plot to the y-intercept indicates the log kw value.

HT29 colon cells = test: ROS detection assay (DCFH-DA); assay type: cell-based, human; details: HT29 colon cells, treated at GI50 concentration (TBHP positive control 20 μM)
Excerpt: Although ROS is required for cancer cell function and progression, it can induce programmed cell death or apoptosis. […] In this study, we report the ROS activity of the studied platinum(IV) complexes, 1–8, together with the individual axial ligands (4-CPA, 4-FPA, 4-BPA, and 4-IPA) in the human cancer cell line, HT29 colon (Figure 19, Table 8, and Figure S95). The ROS potential of their platinum(II) and platinum(IV) precursors in the same cell line is also presented for comparison purposes (Table 8). […] HT29 colon cells were stained by DCFH-DA and then treated with the complexes at each specific GI50 concentration. Upon ROS production, the DCFH-DA produced dichlorodihydrofluorescein, a fluorescent product. The measured fluorescence was, therefore, proportional to the produced ROS.
To investigate the presence of ROS in treated cells, a DCFDA/H2DCFDA-cellular ROS Assay Kit (Abcam, Cambridge, MA, USA) was used, as previously described. A total of 25,000 cells/mL of HT29 cells in DMEM were seeded in 96-well plates. Cells were washed with 1X kit buffer, and then stained with 25 μM 2′,7′-dichlorofluorescein diacetate (DCFH-DA) and incubated for 45 min. DCFH-DA was then removed, and cells were then re-washed with 1X kit buffer, after which phenol red free media was added. Cells were then treated with a GI50 drug concentration for each complex. The plates were directly scanned to measure fluorescence (relative fluorescence units (RFU)) at different time points using the Glo-Max®-Multimode microplate reader (Promega Corporation, Alexandra, VIC, Australia) at an excitation/emission of 485/535 nm. To generate the positive control (20 μM tert-butyl hydroperoxide (TBHP)), cells were washed with 1X kit buffer, and stained with DCFDA (25 μM) for 45 min; this was removed and TBHP was added in phenol red free media, and the resulting solution was scanned as described above.

[3] = test system: ADDP-resistant ovarian variant; test: MTT growth inhibition assay, ADDP; assay type: cell-based, human; details: MTT assay, 72 h
SJ-G2 glioblastoma = test: MTT growth inhibition assay, SJ-G2; assay type: cell-based, human; details: 72 h
[4] = Reduction experiments with AsA by 1H-NMR and 1D-195Pt-NMR; assay type: physicochemical; details: D2O, 37 °C; for T50% (approximate time at which 50% reduction occurs): 10 mM PBS (~7.4 pH), 1H-NMR; for extent of reduction 1 h after the final 1H-NMR experiment (1D-195Pt-NMR): PBS, regions −2800 and 400 ppm
Excerpt: Platinum(IV) complexes are reduced to their platinum(II) precursors by intracellular biological reducing agents such as AsA or GSH in tumour cells. However, the precise mechanism by which reduction occurs is not fully understood. In this paper, reduction reaction experiments were undertaken on the synthesised platinum(IV) complexes, 1–8, with the aid of ^1H-NMR and 1D-^195Pt-NMR spectroscopy. The method used for the reduction reaction experiments was adapted from the literature without modifications. A total of 10 mM PBS (~7.4 pH) was selected as media, and AsA was used as the biological reducing agent to investigate the reduction property of 1–8. Prior to the reduction reaction experiments, a control was prepared where each metal complex was dissolved with PBS in D2O. 1D-^195Pt-NMR was measured within the regions of −2800 and 400 ppm (30 min per region), at 37 °C. This was undertaken to confirm that the PBS would not interfere with the reduction process of the metal complexes. […] The approximate time points for the studied complexes at which an estimated 50% reduction had occurred, in the presence of AsA, as represented by T50%, are summarised in Table 6.
The reduction properties of 1–8 were monitored using ^1H-NMR and 1D-^195Pt-NMR spectroscopy on a 400 MHz Bruker (Melbourne, VIC, Australia) Avance Spectrometer. A sequence of ^1H-NMR experiments was carried out for 1 h at 37 °C, followed by 1D-^195Pt-NMR within the regions of −2800 and 400 ppm. An amount of 10 mM PBS (~7.4 pH) was transferred to a vial and reduced to dryness through rotary evaporation. AsA (~1 mg) was combined with the metal complex (~5 mg) and transferred to the vial containing the dried PBS. A total of 600 µL of D2O was then added to the vial to dissolve the complex, AsA, and the PBS together.

A431 skin = test: MTT growth inhibition assay, A431; assay type: cell-based, human; details: 72 h
Du145 prostate = test: MTT growth inhibition assay, Du145; assay type: cell-based, human; details: MTT assay, 72 h
A2780 ovarian = test: MTT growth inhibition assay, A2780; assay type: cell-based, human; details: 72 h
MIA pancreas = test: MTT growth inhibition assay, MIA; assay type: cell-based, human; details: 72 h
MCF-7 breast = test: MTT growth inhibition assay, MCF-7; assay type: cell-based, human; details: MTT assay, 72 h
H460 lung = test: MTT growth inhibition assay, H460; assay type: cell-based, human; details: 72 h

Compound	GI50 (HT29 colon)	GI50 [1]	GI50 (U87 glioblastoma)	GI50 (panel of cell lines)	GI50 (BE2-C neuroblastoma)	log kw [2]	log kw (y-intercept of log k versus [CH3CN] % plot, Figure S80) [2]	ROS production 24 h (HT29 colon cells)	ROS production 48 h (HT29 colon cells)	ROS production 72 h (HT29 colon cells)	GI50 [3]	GI50 (SJ-G2 glioblastoma)	T50% (approximate time at which 50% reduction occurs) [4]	extent of reduction 1 h after the final 1H-NMR experiment (1D-195Pt-NMR) [4]	GI50 (A431 skin)	GI50 (Du145 prostate)	GI50 (A2780 ovarian)	GI50 (MIA pancreas)	GI50 (MCF-7 breast)	GI50 (H460 lung)
N[C@H]1CCCC[C@@H]1N.O=C(Cc1ccc(I)cc1)[O][Pt+2]1([OH])[N]2C=CC=c3ccc4c(c32)[N]1C=CC=4 [Complex 7, [Pt^IV(phen)(SS-DACH)(4-IPA)(OH)]^2+]	220 ± 33 nM	280 ± 30 nM	1010 ± 95 nM	432 ± 60 nM	680 ± 38 nM	0.90	0.895	211 ± 9.1 RFU	281 ± 12 RFU	322 ± 17 RFU	280 ± 24 nM	590 ± 23 nM	30 min	partial reduction; also recorded: traces of platinum(IV) species were still observed	500 ± 180 nM	110 ± 25 nM	280 ± 42 nM	360 ± 40 nM	490 ± 134 nM	380 ± 59 nM
Cc1c(C)c2c3c4c1=CC=C[N]4[Pt+2]([OH])([O]C(=O)Cc1ccc(I)cc1)[N]3C=CC=2.N[C@H]1CCCC[C@@H]1N [Complex 8, [Pt^IV(5,6-Me2phen)(SS-DACH)(4-IPA)(OH)]^2+]	178 ± 31 nM	260 ± 22 nM	900 ± 58 nM	387 ± 50 nM	650 ± 81 nM	1.19	1.1909	345 ± 19.3 RFU	406 ± 14 RFU	466 ± 13 RFU	230 ± 15 nM	520 ± 29 nM	5 to 10 min	complete reduction	430 ± 160 nM	100 ± 21 nM	260 ± 45 nM	300 ± 55 nM	420 ± 62 nM	390 ± 33 nM
